From PubChem BioAssay (NCI)
“And” between values parts separate entries of the source, which are not always exact repeats. Identical values can stand only once.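 Cells were grown in 96-well plates and exposed to each compound for 48 hours at five concentrations; endpoints were interpolated linearly between bracketing concentrations, or set to the highest concentration if not reached. GI50 marks 50% less growth. TGI: total growth inhibition.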

Experiments:
Test in all cases: DTP human tumour cell line panel, 48 h
OVCAR-3 ovarian = tested on: OVCAR-3 ovarian
OVCAR-5 ovarian = tested on: OVCAR-5 ovarian
HT29 colon = tested on: HT29 colon
MDA-N = tested on: MDA-N
MDA-MB-231 breast = tested on: MDA-MB-231 breast
HCC-2998 colon = tested on: HCC-2998 colon
OVCAR-8 ovarian = tested on: OVCAR-8 ovarian
EKVX NSCLC = tested on: EKVX NSCLC
A549 NSCLC = tested on: A549 NSCLC
SNB-75 CNS = tested on: SNB-75 CNS

Compound	TGI (OVCAR-3 ovarian) [µM]	TGI (OVCAR-5 ovarian)	TGI (HT29 colon)	TGI (MDA-N)	TGI (MDA-MB-231 breast)	TGI (HCC-2998 colon) [µM]	TGI (OVCAR-8 ovarian)	TGI (EKVX NSCLC) [µM]	TGI (A549 NSCLC) [µM]	TGI (SNB-75 CNS) [µM]	GI50 (OVCAR-3 ovarian) [µM]	GI50 (OVCAR-5 ovarian) [µM]	GI50 (EKVX NSCLC) [µM]	GI50 (HT29 colon) [µM]	GI50 (MDA-MB-231 breast) [µM]	GI50 (A549 NSCLC) [µM]	GI50 (HCC-2998 colon) [µM]	GI50 (OVCAR-8 ovarian) [µM]	GI50 (SNB-75 CNS) [µM]
CCC1(O)CC(OC2CC(N(C)C)C(OC3CC(O)C(OC4CCC(=O)C(C)O4)C(C)O3)C(C)O2)c2c(O)c3c(c(O)c2C1C(=O)OC)C(=O)c1cccc(O)c1C3=O (stereo not drawn)	10.3	0.0735 µM and 0.722 µM	0.103 µM and 0.0147 µM	0.107 µM and 0.0142 µM	0.28 µM and 0.229 µM	0.04	0.9 µM and 0.187 µM	–	–	–	–	–	–	–	–	–	–	–	–
Cc1sc2nc3n(c(=O)c2c1C)N=C(c1ccc([N+](=O)[O-])cc1)CS3	> 100	> 100 µM	> 100 µM	> 100 µM	> 100 µM	> 100	> 100 µM	> 100	> 100	> 100	–	–	–	–	–	–	–	–	–
C#CCCCC(=O)N(C(=O)CS(=O)CC)c1ccccc1 (stereo not drawn)	> 100	> 100 µM	> 100 µM	> 100 µM	> 100 µM	> 100	> 100 µM	> 100	> 100	> 100	–	–	–	–	–	–	–	–	–
C/C=C1\CC(C(=O)OCC)CCCCCCCCCCC1=O (stereo not drawn)	–	> 100 µM	> 100 µM	> 100 µM	> 100 µM	–	> 100 µM	> 100	> 100	> 100	–	–	–	–	–	–	–	–	–
Cc1cccc(NC2=NCCO2)c1Cl	–	> 100 µM	> 100 µM	–	> 100 µM	> 100	> 100 µM	> 100	> 100	> 100	–	–	–	–	–	–	–	–	–
C[N+](C)([O-])CCCNc1ccnc2cccc([N+](=O)[O-])c12	44.9	> 100 µM	> 100 µM	> 100 µM	> 100 µM	> 100	> 100 µM	> 100	> 100	> 100	–	–	–	–	–	–	–	–	–
Cc1nc2c(=O)[nH]c3ccc(Cl)cc3c2o1	> 100	> 100 µM	> 100 µM	> 100 µM	> 100 µM	> 100	> 100 µM	> 100	> 100	> 100	–	–	–	–	–	–	–	–	–
CC1CC[C@@]2(OC1)OC1C[C@H]3[C@@H]4CCC5CC(O)CC[C@]5(C)[C@H]4C/C(=N\N(C)C)[C@]3(C)C1[C@@H]2C (stereo partly drawn)	38.6	62.2 µM	39.9 µM	41.4 µM	50.2 µM	45.6	–	–	> 100	–	–	–	–	–	–	–	–	–	–
COc1ccc(N2C(=O)C3CC4=CC(=O)C[C@H]4[C@H]32)cc1 (stereo partly drawn)	> 100	> 100 µM	–	82.1 µM	> 100 µM	> 100	> 100 µM	–	> 100	> 100	–	–	–	–	–	–	–	–	–
O=S(=O)(/N=C(\NO)Nc1ccc(Cl)cc1)c1ccc(-c2ccccn2)s1	40.2	> 100 µM	> 100 µM	94.5 µM	> 100 µM	–	> 100 µM	98.8	> 100	> 100	–	–	–	–	–	–	–	–	–
CN(CCO)/N=N/c1[nH]ncc1C(N)=O	> 100	> 100 µM	> 100 µM	–	–	> 100	> 100 µM	> 100	> 100	> 100	–	–	–	–	–	–	–	–	–
c1ccc(CCn2cncn2)cc1	> 100	> 100 µM	> 100 µM	–	–	> 100	–	> 100	> 100	> 100	–	–	–	–	–	–	–	–	–
Cc1ccc2c(=O)c(-c3n[nH]c(=S)s3)c[nH]c2n1	> 100	> 100 µM	> 100 µM	> 100 µM	> 100 µM	–	> 100 µM	> 100	> 100	–	–	–	–	–	–	–	–	–	–
c1ccc(C2[C@@H]3CCCc4ccccc4C3=NN2c2ccccc2)cc1 (stereo partly drawn)	> 100	> 100 µM	> 100 µM	–	–	> 100	> 100 µM	> 100	> 100	–	–	–	–	–	–	–	–	–	–
CC1(C)c2ccccc2C(O)C12CCC(=O)CC2 (stereo not drawn)	> 100	> 100 µM	> 100 µM	> 100 µM	> 100 µM	> 100	–	> 100	93.9	–	–	–	–	–	–	–	–	–	–
C=CC(Br)(CBr)CCC(Br)C(C)C (stereo not drawn)	8.9	29.6 µM	8.4 µM	6.37 µM	10.3 µM	–	8.58 µM	32.3	28.5	6.13	–	–	–	–	–	–	–	–	–
CC1(C)C2CCC(N)(C2)C1O (stereo not drawn)	> 100	> 100 µM	–	> 100 µM	–	> 100	> 100 µM	> 100	> 100	> 100	–	–	–	–	–	–	–	–	–
Brc1cccc[n+]1-c1ccc2cc(-[n+]3ccccc3Br)ccc2c1	46.4	> 100 µM	> 100 µM	–	85.6 µM	> 100	> 100 µM	> 100	> 100	–	–	–	–	–	–	–	–	–	–
CN(C)CCn1nc(N)c2nc3cc(C(F)(F)F)ccc3nc21	–	> 100 µM	> 100 µM	> 100 µM	> 100 µM	> 100	> 100 µM	> 100	> 100	72	–	–	–	–	–	–	–	–	–
OC(CN1CCCCC1)c1ccc(/C=C/c2ccc(Cl)cc2)cc1 (stereo not drawn)	> 100	> 100 µM	> 100 µM	> 100 µM	> 100 µM	> 100	> 100 µM	> 100	> 100	–	–	–	–	–	–	–	–	–	–
COc1cc2c(cc1OCCCCCOc1cc3c(cc1OC)C(=O)N1CCC[C@H]1CN3)N=C[C@@H]1CCCN1C2=O	44.7	69.4 µM	37.3 µM	–	9.48 µM	–	24.2 µM	> 100	27	95.2	–	–	–	–	–	–	–	–	–
COc1cc2c(c(OC)c1OC)-c1ccc(SC)cc1C(=O)CC2	> 100	> 100 µM	< 0.01 µM	27.2 µM	–	39.6	> 100 µM	> 100	> 100	> 100	–	–	–	–	–	–	–	–	–
COc1ccc2[nH]c(O)c(/C=c3/cc4c(c(-c5ccc(F)cc5)n3)=Nc3ccccc3-4)c2c1	3.24	35.6 µM	3.85 µM	–	3.87 µM	12.6	5.01 µM	> 100	6.34	27.4	1.82	13.8	23.2	1.94	1.2	2.31	3.3	2	13
